Data on 3 compounds can be found in patent publication US7625939B2, “Cyclopropyl-fused pyrrolidine derivatives as dipeptidyl peptidase IV inhibitors” (Probiodrug AG, priority 2005, dated 2009).

By IC50 is commonly meant the concentration at which inhibition is half-maximal.

Assay type in all cases: biochemical
Holding throughout (settings): Gly-Pro-pNA 0.4 mM, HEPES pH 7.6, 30° C.

Assay [1] deals with human recombinant DP II (Homo sapiens, UniProt Q9UHL4). The assay can be described thus: IC50 of DP II inhibition, human recombinant enzyme (Gly-Pro-pNA substrate). On the procedure: (§1) 100 μl inhibitor stock solution were mixed with 100 μl buffer (HEPES pH 7.6) and 50 μl substrate (Gly-Pro-pNA, final concentration 0.4 mM) and preincubated at 30° C. Reaction was started by addition of 20 μl enzyme solution (either purified porcine DP IV, human recombinant DP IV, human recombinant DP II or human recombinant DP9). Formation of the product pNA was measured at 405 nm over 10 min using the HTS 7000Plus plate reader (Perkin Elmer) and slopes were calculated. The final inhibitor concentrations ranged between 1 mM and 30 nM.
(§2) For calculation of IC50-values GraFit 4.0.13 (Erithacus Software) was used.

The target in assay [2] is human recombinant DP9 (Homo sapiens, UniProt Q86TI2). Description: IC50 of DP9 inhibition, human recombinant enzyme (Gly-Pro-pNA substrate). Here is the method: as §1, §2
Assay [3] has as its target human recombinant DP IV (Homo sapiens, UniProt P27487). The assay can be described thus: IC50 of DP IV inhibition, human recombinant enzyme (Gly-Pro-pNA substrate). Here is the method:
as §1, §2

The target of assay [4] is T1, purified porcine DP IV (Sus scrofa, UniProt P22411).
T1 construct: purified porcine DP IV; from tissue; host or cells: porcine kidney
The assay can be described thus: IC50 of DP IV inhibition, porcine kidney enzyme (Gly-Pro-pNA substrate). On the procedure: as §1, §2

Chain of human recombinant DP9 (Q86TI2 whole entry): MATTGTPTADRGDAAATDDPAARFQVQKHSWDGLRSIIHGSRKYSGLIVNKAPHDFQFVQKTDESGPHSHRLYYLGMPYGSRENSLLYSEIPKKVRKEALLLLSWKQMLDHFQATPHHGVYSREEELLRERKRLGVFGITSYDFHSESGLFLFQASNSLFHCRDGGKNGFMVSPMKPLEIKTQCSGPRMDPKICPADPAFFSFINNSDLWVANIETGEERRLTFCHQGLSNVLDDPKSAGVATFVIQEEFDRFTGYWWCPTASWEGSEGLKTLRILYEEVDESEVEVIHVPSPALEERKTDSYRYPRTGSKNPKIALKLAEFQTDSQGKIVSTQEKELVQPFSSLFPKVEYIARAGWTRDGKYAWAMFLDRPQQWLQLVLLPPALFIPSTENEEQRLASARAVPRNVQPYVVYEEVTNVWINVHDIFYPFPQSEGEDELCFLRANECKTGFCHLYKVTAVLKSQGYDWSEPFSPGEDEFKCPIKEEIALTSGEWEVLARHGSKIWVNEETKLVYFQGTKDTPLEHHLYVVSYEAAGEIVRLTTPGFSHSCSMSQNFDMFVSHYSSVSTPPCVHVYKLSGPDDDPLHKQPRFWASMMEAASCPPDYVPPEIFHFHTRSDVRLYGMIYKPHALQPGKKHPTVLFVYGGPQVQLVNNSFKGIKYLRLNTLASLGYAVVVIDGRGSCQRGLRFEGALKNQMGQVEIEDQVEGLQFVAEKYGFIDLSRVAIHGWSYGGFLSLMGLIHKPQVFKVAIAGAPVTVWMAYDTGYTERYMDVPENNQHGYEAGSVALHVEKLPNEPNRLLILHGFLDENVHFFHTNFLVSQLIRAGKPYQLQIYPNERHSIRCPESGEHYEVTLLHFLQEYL
Chain of human recombinant DP IV (P27487 whole entry): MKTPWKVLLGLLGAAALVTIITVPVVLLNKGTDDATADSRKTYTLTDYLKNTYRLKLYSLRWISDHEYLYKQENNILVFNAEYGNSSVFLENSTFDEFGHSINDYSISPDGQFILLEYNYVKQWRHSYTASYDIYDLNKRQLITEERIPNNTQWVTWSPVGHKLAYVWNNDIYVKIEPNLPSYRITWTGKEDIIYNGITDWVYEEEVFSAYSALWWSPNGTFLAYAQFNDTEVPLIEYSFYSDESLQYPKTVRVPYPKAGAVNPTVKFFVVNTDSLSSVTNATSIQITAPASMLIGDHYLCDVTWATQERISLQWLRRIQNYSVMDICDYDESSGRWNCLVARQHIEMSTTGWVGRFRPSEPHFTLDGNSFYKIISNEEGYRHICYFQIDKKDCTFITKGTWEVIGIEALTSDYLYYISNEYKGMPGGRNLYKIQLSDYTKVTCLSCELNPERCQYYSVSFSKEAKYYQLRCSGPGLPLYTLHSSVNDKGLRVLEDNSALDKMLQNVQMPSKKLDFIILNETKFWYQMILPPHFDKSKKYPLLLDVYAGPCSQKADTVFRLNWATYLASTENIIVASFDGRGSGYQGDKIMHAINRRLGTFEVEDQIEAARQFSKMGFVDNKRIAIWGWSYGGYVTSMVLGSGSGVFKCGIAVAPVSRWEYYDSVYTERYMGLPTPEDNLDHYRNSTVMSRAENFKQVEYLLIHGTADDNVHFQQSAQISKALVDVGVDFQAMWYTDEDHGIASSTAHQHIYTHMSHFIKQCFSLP
T1 sequence (P22411 whole entry): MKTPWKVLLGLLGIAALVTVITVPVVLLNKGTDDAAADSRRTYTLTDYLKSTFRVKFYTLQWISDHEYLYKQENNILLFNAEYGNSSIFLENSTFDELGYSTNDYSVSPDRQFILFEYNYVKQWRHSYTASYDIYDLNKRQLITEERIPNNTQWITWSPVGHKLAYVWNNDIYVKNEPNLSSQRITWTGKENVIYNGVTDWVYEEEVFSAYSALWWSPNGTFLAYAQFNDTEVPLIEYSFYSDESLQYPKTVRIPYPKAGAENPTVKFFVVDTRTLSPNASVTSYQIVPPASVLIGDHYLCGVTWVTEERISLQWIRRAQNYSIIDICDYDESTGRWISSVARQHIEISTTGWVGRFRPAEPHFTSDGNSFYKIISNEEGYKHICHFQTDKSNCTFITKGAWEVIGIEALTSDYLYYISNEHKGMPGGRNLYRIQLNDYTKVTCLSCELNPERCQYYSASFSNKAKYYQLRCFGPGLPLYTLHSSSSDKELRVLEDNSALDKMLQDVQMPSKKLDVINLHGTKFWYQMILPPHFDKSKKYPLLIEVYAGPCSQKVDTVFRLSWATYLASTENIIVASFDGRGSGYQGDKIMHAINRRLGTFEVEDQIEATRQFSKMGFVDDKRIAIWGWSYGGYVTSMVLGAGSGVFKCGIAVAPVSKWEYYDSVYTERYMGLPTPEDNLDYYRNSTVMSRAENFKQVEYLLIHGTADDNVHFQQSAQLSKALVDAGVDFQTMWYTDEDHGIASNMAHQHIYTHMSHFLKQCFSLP

Consider `CC(C)[C@H](N)C(=O)N1CC2CC2C1B(O)O` (stereo partly drawn) [Example 1], for which the IC50 in assay [1] is 3820 nM; in assay [2] it was 15.9 nM; in assay [3] it was 31.6 nM; in assay [4], 3.53 nM.
In the same order, the values of `CC(C)(C)[C@H](N)C(=O)N1CC2CC2C1B(O)O` (stereo partly drawn) [Example 2] are 21100 nM, 18.4 nM, 75 nM and 10.2 nM.
In the same order, the values of `CC[C@H](C)[C@H](N)C(=O)N1CC2CC2C1B(O)O` (stereo partly drawn) [Example 3] are 1470 nM, 10.8 nM, 45.1 nM and 9.46 nM.
